Assay [1] deals with Streptococcus sp. 'group A'. Put plainly: Streptococcus pyogenes SK(-)GAS viability under kanamycin – luminescence, BacTiterGlo, confirmation, counter-screen for streptokinase expression inhibitor project, dose response (AID 1900). Format: functional, organism-based.
Another assay has as its target Exodeoxyribonuclease V (Escherichia coli (strain K12), UniProt P04993+P07648+P08394). Put plainly: RecBCD inhibition via phage-restricted bacterial growth – absorbance, V66 E. coli, mutant T4 phage, counter-screen for AddAB inhibitor project, dose response (AID 492957). It is filed as functional, cell-based, Escherichia coli str. K-12 substr. MG1655. For orientation: Counterscreens check selectivity or assay interference.

Assay [2] can be described thus: Counterscreen for AddAB inhibitors: absorbance-based bacterial cell-based high throughput dose response assay for inhibitors of bacterial viability. [Related pubchem assays (depositor defined):AID435030, AID449728, AID449731, AID488942, AID488955, AID488956]. Format: functional.
Another assay deals with INS1. Put plainly: INS-1E survival protection against cytokine death – cell-based, luminescence, retest, dose response (AID 449756).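 Also: cell death triggered by IL-1 beta plus TNF-alpha plus IFN-gamma mixture; protective hits raise ATP signal compared with cytokine alone wells.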 It is filed as functional. Particulars: Rattus norvegicus.
Assay [3] has as its target Dual specificity protein kinase CLK2 (Homo sapiens, UniProt P49760). Format: functional.
Assay [4] addresses 5'-AMP-activated protein kinase catalytic subunit alpha-1 (Homo sapiens, UniProt Q13131). Format: functional.
Assay [5] deals with Proto-oncogene tyrosine-protein kinase receptor Ret (Homo sapiens, UniProt P07949). It is filed as functional.
For assay [6], the target named is Death-associated protein kinase 3 (Homo sapiens, UniProt O43293). Format: functional.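 Also: measured as one member of a kinome-wide profiling panel.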
In another assay the target is Activin receptor type-1 (Homo sapiens, UniProt Q04771). As to the kind of experiment: Navigating the Kinome. Panel member name: ACVR1. It is filed as functional.
In assay [7] the target is Mitogen-activated protein kinase 8 (Homo sapiens, UniProt P45983). Format: functional.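 Also: value comes from one member of a kinome-wide kinase profiling panel.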
A further assay has as its target Aurora kinase A (Homo sapiens, UniProt O14965). Format: functional.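 Also: value from the Navigating the Kinome kinase panel profiling, panel entry STK6.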
Assay [8] deals with Fibroblast growth factor receptor 1 (Homo sapiens, UniProt P11362). Format: functional.
Assay [9] has as its target High affinity nerve growth factor receptor (Homo sapiens, UniProt P04629). It is filed as functional.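 Also: NTRK1 tested as one member of a kinome-wide profiling panel.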
Assay [10] addresses Glycogen synthase kinase-3 alpha (Homo sapiens, UniProt P49840). Format: functional.
The target of assay [11] is Hepatocyte growth factor receptor (Homo sapiens, UniProt P08581). Format: functional.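 Also: kinase panel profiling across the kinome, with MET as the panel member.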
The target of a further assay is Activated CDC42 kinase 1 (Homo sapiens, UniProt Q07912). As to the kind of experiment: Navigating the Kinome. Panel member name: ACK1. It is filed as functional.
Assay [12] addresses Tyrosine-protein kinase ABL1 (Homo sapiens, UniProt P00519). It is filed as functional.
Assay [13] has as its target Vascular endothelial growth factor receptor 2 (Homo sapiens, UniProt P35968). Format: functional.
The target in assay [14] is G protein-coupled receptor kinase 5 (Homo sapiens, UniProt P34947). As to the kind of experiment: Navigating the Kinome. Panel member name: GPRK5. It is filed as functional.
The target in assay [15] is Insulin-like growth factor 1 receptor (Homo sapiens, UniProt P08069). As to the kind of experiment: Navigating the Kinome. Panel member name: IGF1R. Format: functional.
The target of assay [16] is Platelet-derived growth factor receptor alpha (Homo sapiens, UniProt P16234). Put plainly: Navigating the Kinome. Panel member name: PDGFRA. It is filed as functional.
Assay [17] concerns the target Leucine-rich repeat serine/threonine-protein kinase 2 (Homo sapiens, UniProt Q5S007). It is filed as functional.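 Also: value from a broad kinome-wide panel profiling study in which LRRK2 was one of the kinases tested.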
For assay [18], the target named is Rho-associated protein kinase 1 (Homo sapiens, UniProt Q13464). It is filed as functional.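 Also: measured within a broad kinome-wide panel profiling many kinases.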
In assay [19] the target is Glycogen synthase kinase-3 beta (Homo sapiens, UniProt P49841). It is filed as functional.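 Also: value comes from a broad kinome profiling panel, with GSK3B as the panel member.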
Assay [20] concerns the target Inhibitor of nuclear factor kappa-B kinase subunit epsilon (Homo sapiens, UniProt Q14164). Put plainly: Navigating the Kinome. Panel member name: IKBKE. Format: functional.
For assay [21], the target named is Mitogen-activated protein kinase 14 (Homo sapiens, UniProt Q16539). Format: functional.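 Also: part of a kinome-wide panel, MAPK14 entry.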
Assay [22] addresses T1, Sentrin-specific protease 7 (Homo sapiens, UniProt Q9BQF6).
T1 sequence (Q9BQF6 whole entry): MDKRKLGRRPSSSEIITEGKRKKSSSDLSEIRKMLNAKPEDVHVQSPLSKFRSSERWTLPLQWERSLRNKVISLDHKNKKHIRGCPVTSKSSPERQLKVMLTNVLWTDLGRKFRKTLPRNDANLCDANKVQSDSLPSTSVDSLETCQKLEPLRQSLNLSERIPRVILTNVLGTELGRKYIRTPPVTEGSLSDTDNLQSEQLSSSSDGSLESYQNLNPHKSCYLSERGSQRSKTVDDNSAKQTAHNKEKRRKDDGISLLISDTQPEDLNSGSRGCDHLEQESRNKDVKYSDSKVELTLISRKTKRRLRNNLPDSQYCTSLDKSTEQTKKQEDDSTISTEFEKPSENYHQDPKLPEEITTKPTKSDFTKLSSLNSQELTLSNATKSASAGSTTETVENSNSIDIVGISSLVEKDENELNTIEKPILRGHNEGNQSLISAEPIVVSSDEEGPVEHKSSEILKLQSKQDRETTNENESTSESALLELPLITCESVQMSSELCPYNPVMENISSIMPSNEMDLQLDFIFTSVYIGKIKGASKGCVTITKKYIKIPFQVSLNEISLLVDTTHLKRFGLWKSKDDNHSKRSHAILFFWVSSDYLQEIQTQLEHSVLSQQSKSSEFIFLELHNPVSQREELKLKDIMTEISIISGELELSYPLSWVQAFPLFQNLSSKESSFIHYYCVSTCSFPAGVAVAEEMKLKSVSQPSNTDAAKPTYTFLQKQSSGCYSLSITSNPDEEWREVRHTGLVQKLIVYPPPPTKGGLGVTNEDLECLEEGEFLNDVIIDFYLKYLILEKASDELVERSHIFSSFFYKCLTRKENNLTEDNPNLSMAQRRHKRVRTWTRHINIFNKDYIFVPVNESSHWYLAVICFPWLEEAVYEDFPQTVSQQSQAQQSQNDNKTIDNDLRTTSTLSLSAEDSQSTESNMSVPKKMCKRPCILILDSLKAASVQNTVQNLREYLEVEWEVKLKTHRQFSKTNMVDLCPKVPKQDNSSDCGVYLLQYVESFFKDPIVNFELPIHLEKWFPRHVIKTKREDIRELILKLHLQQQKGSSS
It is filed as functional.

By EC50 is commonly meant the concentration giving half of the maximal effect. The IC50 is the concentration that inhibits the measured activity by half. For orientation: AC50 means the concentration at which the activity in the assay is half-maximal. A word on the Ki: it is the equilibrium dissociation constant of an inhibitor or competing ligand from its target.

SMILES strings stand for the structures. Activity calls are given as the source filed them.

Chain of Dual specificity protein kinase CLK2 (P49760 whole entry): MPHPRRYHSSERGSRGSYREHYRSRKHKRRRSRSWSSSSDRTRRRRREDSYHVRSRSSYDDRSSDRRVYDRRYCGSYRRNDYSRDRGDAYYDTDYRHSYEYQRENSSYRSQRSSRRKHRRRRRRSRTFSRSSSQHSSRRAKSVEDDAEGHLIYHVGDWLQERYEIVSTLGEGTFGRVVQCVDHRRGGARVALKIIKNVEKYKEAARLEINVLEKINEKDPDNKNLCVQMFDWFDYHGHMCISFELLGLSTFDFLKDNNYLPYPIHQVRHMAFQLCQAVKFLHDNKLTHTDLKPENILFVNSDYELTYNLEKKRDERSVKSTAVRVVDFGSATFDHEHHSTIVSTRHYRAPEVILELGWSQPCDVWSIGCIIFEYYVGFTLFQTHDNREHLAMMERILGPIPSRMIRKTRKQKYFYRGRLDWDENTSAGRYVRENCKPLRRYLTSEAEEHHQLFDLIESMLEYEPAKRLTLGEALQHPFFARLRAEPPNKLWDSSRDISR
Chain of Inhibitor of nuclear factor kappa-B kinase subunit epsilon (Q14164 whole entry): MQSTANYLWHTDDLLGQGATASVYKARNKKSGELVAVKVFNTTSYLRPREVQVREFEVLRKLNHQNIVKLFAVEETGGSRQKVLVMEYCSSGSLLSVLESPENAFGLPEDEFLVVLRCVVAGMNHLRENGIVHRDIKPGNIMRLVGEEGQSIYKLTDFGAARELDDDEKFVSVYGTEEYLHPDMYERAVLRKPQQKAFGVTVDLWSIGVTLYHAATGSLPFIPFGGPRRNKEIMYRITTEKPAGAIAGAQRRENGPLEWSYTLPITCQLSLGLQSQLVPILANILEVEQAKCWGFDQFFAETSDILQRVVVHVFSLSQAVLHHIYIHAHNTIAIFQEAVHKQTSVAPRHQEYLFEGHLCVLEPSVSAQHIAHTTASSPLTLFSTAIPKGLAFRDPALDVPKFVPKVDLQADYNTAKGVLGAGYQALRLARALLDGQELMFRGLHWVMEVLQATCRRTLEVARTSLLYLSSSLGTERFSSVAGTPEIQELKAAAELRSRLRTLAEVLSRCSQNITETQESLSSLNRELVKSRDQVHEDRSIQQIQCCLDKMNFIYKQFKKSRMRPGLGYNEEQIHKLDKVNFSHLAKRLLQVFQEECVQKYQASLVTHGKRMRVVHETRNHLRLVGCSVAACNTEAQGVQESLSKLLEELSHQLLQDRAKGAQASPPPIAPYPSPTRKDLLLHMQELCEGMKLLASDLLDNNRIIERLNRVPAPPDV
Chain of High affinity nerve growth factor receptor (P04629 whole entry): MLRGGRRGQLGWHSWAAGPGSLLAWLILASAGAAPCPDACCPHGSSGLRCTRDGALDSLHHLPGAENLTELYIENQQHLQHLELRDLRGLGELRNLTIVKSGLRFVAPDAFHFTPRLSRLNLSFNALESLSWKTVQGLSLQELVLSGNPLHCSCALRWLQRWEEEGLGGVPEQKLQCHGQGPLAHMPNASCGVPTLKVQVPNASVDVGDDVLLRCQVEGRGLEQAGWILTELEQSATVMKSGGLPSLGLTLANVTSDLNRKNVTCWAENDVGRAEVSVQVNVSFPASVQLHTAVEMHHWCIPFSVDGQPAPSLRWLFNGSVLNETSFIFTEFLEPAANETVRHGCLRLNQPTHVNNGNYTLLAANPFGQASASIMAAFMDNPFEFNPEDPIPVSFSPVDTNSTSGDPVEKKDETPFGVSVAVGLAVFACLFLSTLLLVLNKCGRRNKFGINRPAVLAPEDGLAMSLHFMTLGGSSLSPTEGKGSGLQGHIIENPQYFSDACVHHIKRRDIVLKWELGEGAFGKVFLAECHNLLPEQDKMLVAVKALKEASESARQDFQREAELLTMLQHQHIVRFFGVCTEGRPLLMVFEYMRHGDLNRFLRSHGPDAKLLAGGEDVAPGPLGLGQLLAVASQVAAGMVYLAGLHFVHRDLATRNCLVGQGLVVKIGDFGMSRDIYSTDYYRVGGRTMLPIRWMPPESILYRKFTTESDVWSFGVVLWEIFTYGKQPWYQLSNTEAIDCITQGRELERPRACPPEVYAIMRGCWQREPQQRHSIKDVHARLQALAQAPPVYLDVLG
Chain of Platelet-derived growth factor receptor alpha (P16234 whole entry): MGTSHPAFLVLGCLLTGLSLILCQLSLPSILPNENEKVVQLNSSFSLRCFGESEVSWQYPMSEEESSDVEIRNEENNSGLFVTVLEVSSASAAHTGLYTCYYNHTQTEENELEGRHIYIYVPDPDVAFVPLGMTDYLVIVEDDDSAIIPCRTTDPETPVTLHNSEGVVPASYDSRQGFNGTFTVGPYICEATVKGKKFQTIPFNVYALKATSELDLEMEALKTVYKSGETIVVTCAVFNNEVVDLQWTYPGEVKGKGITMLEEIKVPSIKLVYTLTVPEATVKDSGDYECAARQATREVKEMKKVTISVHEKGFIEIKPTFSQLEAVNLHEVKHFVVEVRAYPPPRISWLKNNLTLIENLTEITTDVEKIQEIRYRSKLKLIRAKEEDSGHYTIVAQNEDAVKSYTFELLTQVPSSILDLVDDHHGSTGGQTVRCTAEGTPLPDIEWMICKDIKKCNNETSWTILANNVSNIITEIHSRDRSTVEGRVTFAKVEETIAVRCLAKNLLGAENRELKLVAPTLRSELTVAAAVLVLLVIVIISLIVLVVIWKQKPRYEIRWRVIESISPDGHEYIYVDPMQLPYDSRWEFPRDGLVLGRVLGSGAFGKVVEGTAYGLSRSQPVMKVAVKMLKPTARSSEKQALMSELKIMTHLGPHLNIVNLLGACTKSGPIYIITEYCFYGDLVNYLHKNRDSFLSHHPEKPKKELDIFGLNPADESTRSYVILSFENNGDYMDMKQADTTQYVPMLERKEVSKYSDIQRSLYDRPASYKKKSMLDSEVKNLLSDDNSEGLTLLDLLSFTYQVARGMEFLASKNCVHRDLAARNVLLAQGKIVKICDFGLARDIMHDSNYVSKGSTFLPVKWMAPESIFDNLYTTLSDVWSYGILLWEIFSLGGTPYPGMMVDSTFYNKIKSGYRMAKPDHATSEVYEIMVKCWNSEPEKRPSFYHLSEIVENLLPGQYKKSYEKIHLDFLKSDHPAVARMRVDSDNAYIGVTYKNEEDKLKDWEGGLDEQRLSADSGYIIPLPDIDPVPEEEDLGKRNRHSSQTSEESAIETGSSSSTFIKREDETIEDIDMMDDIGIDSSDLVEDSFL
Chain of 5'-AMP-activated protein kinase catalytic subunit alpha-1 (Q13131 whole entry): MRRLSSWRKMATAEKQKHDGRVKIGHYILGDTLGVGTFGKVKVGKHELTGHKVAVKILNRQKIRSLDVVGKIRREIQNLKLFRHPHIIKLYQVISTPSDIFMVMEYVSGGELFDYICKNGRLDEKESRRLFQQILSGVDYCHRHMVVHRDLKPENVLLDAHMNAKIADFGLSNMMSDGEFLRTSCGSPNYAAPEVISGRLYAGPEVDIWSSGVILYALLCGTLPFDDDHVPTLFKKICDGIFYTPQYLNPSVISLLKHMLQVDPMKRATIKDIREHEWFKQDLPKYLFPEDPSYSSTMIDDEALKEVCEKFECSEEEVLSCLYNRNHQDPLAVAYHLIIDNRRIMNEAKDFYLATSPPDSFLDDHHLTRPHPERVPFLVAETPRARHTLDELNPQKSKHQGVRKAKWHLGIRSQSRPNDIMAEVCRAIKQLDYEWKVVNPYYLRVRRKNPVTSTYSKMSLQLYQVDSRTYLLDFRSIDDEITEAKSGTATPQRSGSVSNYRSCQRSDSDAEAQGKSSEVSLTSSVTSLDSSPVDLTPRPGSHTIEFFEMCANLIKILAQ
Chain of Mitogen-activated protein kinase 8 (P45983 whole entry): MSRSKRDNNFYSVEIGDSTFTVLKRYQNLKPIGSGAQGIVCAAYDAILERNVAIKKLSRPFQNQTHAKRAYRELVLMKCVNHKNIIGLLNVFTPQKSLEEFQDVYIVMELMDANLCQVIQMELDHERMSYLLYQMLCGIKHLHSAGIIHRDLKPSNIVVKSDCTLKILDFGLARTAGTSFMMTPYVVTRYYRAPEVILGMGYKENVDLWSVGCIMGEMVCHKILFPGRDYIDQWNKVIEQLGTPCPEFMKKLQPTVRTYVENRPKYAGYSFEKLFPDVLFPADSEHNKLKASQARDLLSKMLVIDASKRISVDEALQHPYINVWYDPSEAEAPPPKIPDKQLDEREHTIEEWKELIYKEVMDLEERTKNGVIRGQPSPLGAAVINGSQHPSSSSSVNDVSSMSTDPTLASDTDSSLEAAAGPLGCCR
Chain of Fibroblast growth factor receptor 1 (P11362 whole entry): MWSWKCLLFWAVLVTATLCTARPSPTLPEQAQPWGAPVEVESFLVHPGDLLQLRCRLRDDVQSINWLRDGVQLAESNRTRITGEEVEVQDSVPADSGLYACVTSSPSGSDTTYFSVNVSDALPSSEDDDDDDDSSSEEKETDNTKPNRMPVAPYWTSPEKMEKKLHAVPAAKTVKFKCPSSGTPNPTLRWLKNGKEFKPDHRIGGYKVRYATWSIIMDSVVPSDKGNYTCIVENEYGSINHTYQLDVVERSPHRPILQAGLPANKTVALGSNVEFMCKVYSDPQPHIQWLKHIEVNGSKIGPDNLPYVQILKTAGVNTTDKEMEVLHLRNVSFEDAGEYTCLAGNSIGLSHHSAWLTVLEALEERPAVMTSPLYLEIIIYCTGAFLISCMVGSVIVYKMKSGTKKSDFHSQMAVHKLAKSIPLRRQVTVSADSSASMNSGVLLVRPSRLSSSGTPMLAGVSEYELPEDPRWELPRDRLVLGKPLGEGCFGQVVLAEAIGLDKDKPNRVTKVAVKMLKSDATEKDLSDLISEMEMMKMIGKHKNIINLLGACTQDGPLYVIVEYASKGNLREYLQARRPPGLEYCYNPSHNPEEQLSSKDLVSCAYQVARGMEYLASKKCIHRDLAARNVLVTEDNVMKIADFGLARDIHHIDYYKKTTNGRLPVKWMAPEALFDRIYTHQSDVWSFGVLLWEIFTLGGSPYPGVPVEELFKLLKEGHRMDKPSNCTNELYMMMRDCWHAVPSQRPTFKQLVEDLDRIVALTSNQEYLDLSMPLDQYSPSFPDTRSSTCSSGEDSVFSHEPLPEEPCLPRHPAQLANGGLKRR

Consider `CN1CCN(C(c2ccc(C(F)(F)F)cc2)c2cc(Cl)c3cccnc3c2O)CC1` (configuration not stated), for which, in assay [1], the EC50 was 0.558 µM (active). Besides, the IC50 on Exodeoxyribonuclease V is > 119 µM (inactive); in [2], 105 µM (inactive). In addition, the concentration at half-maximal activity (AC50) with INS1 was 3.18 µM (active).

Take `O=C(NC(CCO)c1ccccc1)c1ccc(-c2ccncc2)cc1` (configuration not stated): the Ki in [3] was > 3.98 µM (inactive); in assay [4] it was > 3.16 µM (inactive); in [5] it was > 3.16 µM (inactive); in [6], > 5.01 µM (inactive); at Activin receptor type-1, > 3.98 µM (inactive); in assay [7] it was > 5.01 µM (inactive). Also, the Ki on Aurora kinase A is > 1.58 µM (inactive); in assay [8] it was > 3.98 µM (inactive); in assay [9], > 3.16 µM (inactive); in assay [10] it was 1.26 µM (active); in [11], > 2.51 µM (inactive); on Activated CDC42 kinase 1 it was > 3.98 µM (inactive). For the same compound, the Ki in assay [12] was > 3.98 µM (inactive); in assay [13] it was > 2.51 µM (inactive); in assay [14] it was > 3.98 µM (inactive); in assay [15] it was > 2.51 µM (inactive); in [16] it was > 2.51 µM (inactive); in [17], > 2.51 µM (inactive). The inhibition constant Ki in assay [18] was 0.00631 µM (active); in [19], 1.26 µM (active); in [20], > 3.16 µM (inactive); in [21] it was > 3.98 µM (inactive).

Turning to `NC(=O)c1c(NC(=O)c2cc3ccccc3o2)sc2c1CCC2`, the IC50 in assay [22] is 3.74 µM (active).

(Values after ChEMBL document CHEMBL1201862, “PubChem BioAssay data set” (2004).)
